Results as given in patent US7186825B2, “Conformationally restricted polyamine analogs as disease therapies” (Cellgate, Inc., priority 1999, dated 2007).
Like-named read-outs stand apart in the source and are kept apart here.

Columns and labels:
Format in all cases: cell-based
[1] = tested on: human prostate cancer cells PC3; test: MTT assay, survival/growth of cultured human prostate cancer cells PC3; settings: for EC50: figure legends, survival of cultured PC3 cells, MTT, six days after drug treatment, read-out: ED50 (the source's name); for IC50: read-out: concentration needed for 50% growth inhibition (ID50), Table 3, PC-3
Experimental: (§1) Human breast cancer cell line MCF7 was grown in Richter's Improved Modified Eagle's Medium supplemented with 10% fetal bovine serum (FBS) and 2.2 g/L sodium bicarbonate. Human brain tumor cell line U251 MG-NCI was grown in Dulbecco's Modified Eagle's Medium supplemented with 10% FBS. Human lung cancer cell line A549 was grown in Ham's F-12K medium (Cellgro, Mediatech, Inc., VA), supplemented with 10% FBS and 2 mM L-glutamine. Human colon cancer cell line HT29 was cultured in McCoy's 5A medium (Gibco, BRL, Gaithersburg, Md.) supplemented with 10% FBS. Human prostate cancer cell lines PC-3, LNCAP and DuPro were grown in RPMI 1640 Medium (Cellgro, Mediatech, Inc., VA) supplemented with 10% FBS. Another human prostate cancer cell line DU145 was grown in Dulbecco's Modified Eagle's Medium (Gibco, BRL, Gaithersburg, Md.) supplemented with 5% FBS. The A549, MCF7, PC3, LNCAP and DuPro cell lines were cultured in 100 units/mL penicillin and 100 μg/mL streptomycin. HT29 and U251MG cell lines were grown in 50 μg/mL gentamycin (Gibco, BRL, Gaithersburg, Md.). DU145 cell line was maintained in 1% antibitic-antimycotic solution (Sigma, St. Louis, Mo.). The cell cultures were maintained at 37° C. in 5% CO2/95% humidified air. DuPro cells were obtained from M. Eileen Dolan, University of Chicago. All other cells are available from the American Type Culture Collection, Rockville, Md.
(§2) A conventional MTT assay was used to evaluate percent cell survival. Exponentially growing monolayer cells were plated in 96-well plates at a density of 500 cells per well and allowed to grow for 24 hours. Serial dilutions of the drugs were added to the wells. Six days after drug treatment, 25 μl of MTT solution (5 mg/ml) was added to each well and incubated for 4 hours at 37° C. Then 100 μl of lysis buffer (20% sodium dodecyl sulfate, 50% DMF, and 0.8% acetic acid, pH 4.7) was added to each well and incubated for an additional 22 hours. A microplate reader (“EMAX”-brand, Molecular Devices, Sunnyvale, Calif.) set at 570 nm was used to determine the optical density of the cultures. Results are expressed as a ratio of the optical density in drug-treated wells to the optical density in wells treated with vehicle only.
(§3) Using the protocols of Example 2, the porphyrin-polyamine conjugates were tested for activity in vitro in various cancer cell lines.

[2] = tested on: human breast cancer cells MCF7; test: MTT assay, survival/growth of cultured human breast cancer cells MCF7; settings: for EC50: figure legends, survival of cultured MCF7 cells, MTT, six days after drug treatment, read-out: ED50 (the source's name); for IC50: read-out: concentration needed for 50% growth inhibition (ID50), Table 3, MCF7
Experimental: (§4) As shown in Table 3 and FIGS. 1–32, several novel conformationally restricted polyamine analogs were tested for anti-proliferative properties against cancer cells.
as §1, §2

[3] = tested on: human lung cancer cells A549; test: MTT assay, survival/growth of cultured human lung cancer cells A549; settings: for EC50: figure legends, survival of cultured A549 cells, MTT, six days after drug treatment, read-out: ED50 (the source's name); for IC50: read-out: concentration needed for 50% growth inhibition (ID50); for IC50 / concentration needed for 50% growth inhibition (ID50): Table 3, A549
Experimental: as §4, §1, §2

[4] = tested on: human prostate cancer cells DUPRO; test: MTT assay, survival/growth of cultured human prostate cancer cells DUPRO; settings: for EC50: figure legends, survival of cultured DUPRO cells, MTT, six days after drug treatment, read-out: ED50 (the source's name); for IC50: read-out: concentration needed for 50% growth inhibition (ID50), Table 3, DUPRO
Experimental: as §1, §2, §3

[5] = tested on: human brain tumor cells U251 MG NCI; test: MTT assay, survival/growth of cultured human brain tumor cells U251 MG NCI; settings: for EC50: figure legends, survival of cultured U251 MG NCI cells, MTT, six days after drug treatment, read-out: ED50 (the source's name); for IC50: Table 3, U251MG
Experimental: as §1, §2

[6] = tested on: human prostate cancer cells DU145; test: MTT assay, survival/growth of cultured human prostate cancer cells DU145; settings: for EC50: figure legends, survival of cultured DU145 cells, MTT, six days after drug treatment, read-out: ED50 (the source's name); for IC50: read-out: concentration needed for 50% growth inhibition (ID50), Table 3, DU-145
Experimental: as §1, §2, §3

[7] = tested on: human colon cancer cells HT29; test: MTT assay, survival/growth of cultured human colon cancer cells HT29; settings: for EC50: figure legends, survival of cultured HT29 cells, MTT, six days after drug treatment, read-out: ED50 (the source's name); for IC50: read-out: concentration needed for 50% growth inhibition (ID50), Table 3, HT-29
Experimental: as §4, §1, §2

[8] = Homo sapiens, U-251, read-out: concentration needed for 50% growth inhibition (ID50)
[9] = read-out: concentration needed for 50% growth inhibition (ID50)

CCNCCCNCCCNCCCNCC [BE-333, N1,N11-diethylnorspermine, reference compound]
EC50 [1]: 340 nM
EC50 [2]: 3700 nM
EC50 [3]: 300 nM
EC50 [4]: 900 nM
EC50 [5]: 230 nM
EC50 [6]: 120 nM
EC50 [7]: 300 nM

CCNCCCNCCCCNCCCNCC [BE-343, N1,N12-bis(ethyl) spermine, reference compound]
EC50 [1]: 240 nM
EC50 [2]: 500 nM
EC50 [3]: 200 nM
EC50 [5]: 140 nM
EC50 [6]: 44 nM
EC50 [7]: 600 nM

CNCCCNC[C@H]1CC[C@H]1CNCCCNC [SL-11090]
IC50 ([1]; Homo sapiens): > 31200 nM
IC50 ([2]; Homo sapiens): > 31200 nM
IC50 ([3]; Homo sapiens): > 31200 nM
IC50 [5, 8]: > 31200 nM
IC50 ([6]; Homo sapiens): > 31200 nM
IC50 ([7]; Homo sapiens): > 31200 nM

CCNCCCNCC#CCNCCCNCC [SL-11091]
EC50 ([1]; Homo sapiens, PC-3, 144 h): > 31200 nM
IC50 ([1]; Homo sapiens): > 31200 nM
EC50 ([2]; Homo sapiens, 144 h): > 31200 nM
IC50 ([2]; Homo sapiens): > 31200 nM
EC50 ([3]; Homo sapiens, 144 h): > 31200 nM
IC50 ([3]; Homo sapiens): > 31200 nM
EC50 ([5]; Homo sapiens, U-251, 144 h): > 31200 nM
IC50 [5, 8]: > 31200 nM
EC50 ([6]; Homo sapiens, DU-145, 144 h): 4330 nM
IC50 ([6]; Homo sapiens): 1330 nM
EC50 ([7]; Homo sapiens, HT-29, 144 h): > 31200 nM
IC50 ([7]; Homo sapiens): > 31200 nM

CNCCCNCC#CCNCCCNC [SL-11092]
IC50 ([1]; Homo sapiens): > 31200 nM
IC50 ([2]; Homo sapiens): > 31200 nM
IC50 ([3]; Homo sapiens): > 31200 nM
IC50 [5, 8]: > 31200 nM
IC50 ([6]; Homo sapiens): 1700 nM
IC50 ([7]; Homo sapiens): > 31200 nM

CCNCCCNCc1ccccc1CNCCCNCC [SL-11094]
IC50 [1]: > 31200 nM
IC50 [2]: > 31200 nM
concentration needed for 50% growth inhibition (ID50) [3]: >31250 nM
IC50 [5, 9]: > 31200 nM
EC50 [6]: 15400 nM
IC50 [6]: 12600 nM
IC50 [7]: 28800 nM

CCNCCCCNC/C=C/CNCCCCNCC [SL-11101]
EC50 ([1]; Homo sapiens, PC-3, 144 h): 7700 nM
IC50 ([1]; Homo sapiens): 7700 nM
EC50 ([2]; Homo sapiens, 144 h): > 31200 nM
IC50 ([2]; Homo sapiens): > 31200 nM
EC50 ([3]; Homo sapiens, 144 h): 2200 nM
IC50 ([3]; Homo sapiens): 150 nM
EC50 ([4]; Homo sapiens, 144 h): 850 nM
IC50 ([4]; Homo sapiens): 850 nM
EC50 ([5]; Homo sapiens, U-251, 144 h): 1700 nM
IC50 [5, 8]: 1700 nM
EC50 ([6]; Homo sapiens, DU-145, 144 h): 220 nM
IC50 ([6]; Homo sapiens): 218 nM
IC50 ([7]; Homo sapiens): 5200 nM

CCNCCCCNC/C=C\CNCCCCNCC [SL-11102]
EC50 [1]: > 31200 nM
IC50 [1]: > 31200 nM
IC50 [2]: > 31200 nM
concentration needed for 50% growth inhibition (ID50) [3]: 12400 nM
EC50 [3]: 150 nM
EC50 [4]: 150 nM
IC50 [4]: 150 nM
EC50 [5]: 150 nM
IC50 [5, 9]: 150 nM
EC50 [6]: 30 nM
IC50 [6]: 27 nM
IC50 [7]: 730 nM

CCNCCCCNCC#CCNCCCCNCC [SL-11103]
EC50 ([1]; Homo sapiens, PC-3, 144 h): > 31200 nM
IC50 ([1]; Homo sapiens): > 31200 nM
EC50 ([2]; Homo sapiens, 144 h): > 31200 nM
IC50 ([2]; Homo sapiens): > 31200 nM
EC50 ([3]; Homo sapiens, 144 h): 12400 nM
IC50 ([3]; Homo sapiens): > 31200 nM
EC50 ([5]; Homo sapiens, U-251, 144 h): 9500 nM
IC50 [5, 8]: 9500 nM
EC50 ([6]; Homo sapiens, DU-145, 144 h): 2800 nM
IC50 ([6]; Homo sapiens): 2800 nM
IC50 ([7]; Homo sapiens): 29400 nM

CCNCCCCNCc1ccccc1CNCCCCNCC [SL-11104]
IC50 [1]: > 31200 nM
IC50 [2]: > 31200 nM
concentration needed for 50% growth inhibition (ID50) [3]: 430 nM
EC50 [5]: 14700 nM
IC50 [5, 9]: 14700 nM
EC50 [6]: 9400 nM
IC50 [6]: 9400 nM
IC50 [7]: 25800 nM

CCNC/C=C\CNC/C=C\CNCCCCNCC [SL-11119]
IC50 [1]: > 31200 nM
EC50 [4]: 440 nM
IC50 [4]: 440 nM
EC50 [6]: 80 nM
IC50 [6]: 80 nM
IC50 [7]: 970 nM
